These results are taken from patent publication US8912202B2, “N-(benzimimdazol-2-yl)-cyclopropane carboxamides as lysophosphatidic acid antagonists” (Merck Patent GmbH, priority 2011, dated 2014).

The assay addresses T1, LPA2R (Homo sapiens, UniProt Q9HBW0).
T1 construct: expressed in transfected cells; host or cells: U2OS
Kind of assay: LPA2R-Calciumflux assay (FLIPR, intracellular calcium mobilisation after LPA). The following applies: U2OS cells recombinant expressing LPA2R; antagonism of LPA-induced calcium flux; racemate of the two trans enantiomers unless marked enantiomer. The format is cell-based. An excerpt: The assay detects intra cellular calcium which is generated by cells upon activation of the LPA2 receptor by its ligand LPA. This transient calcium mobilization can be monitored using a commercial calcium detection kit (e.g. from Molecular Devices). The main component of such a kit is a dye, which becomes fluorescent when calcium is present—a transient fluorescence signal after addition of a ligand to a test well are the result. Readers like the FLIPR (Molecular Devices) can be used to monitor such transient “Ca-flux” signals.
The signals are calculated according to peak maximum minus base line.
Compounds which are antagonists of LPA lead to a decreased mobilisation of intracellular calcium and thus to a lower signal. The assay is performed in microplates (384 wells per plate).
LPA2R-Calciumflux Assay Protocol
The assay is run according to the following procedure:
50 uL seed cells (10000 cells/well in DMEM buffer)
• Incubate 24 h at 37° C., 10% CO2 • aspirate medium 50 uL add calcium dye 1×HBSS/HEPES buffer • incubate 1 h at 37° C. (“loading”) • equilibrate 10 min at RT 5 uL add compounds in HEPES buffer • shake 10 sec. at 1000 rpm • incubate 15 min at RT 20 uL add LPA (in the FLIPR Tetra) in Krebs-buffer/BSA & measurement
The cells are seeded in DMEM buffer (DMEM, 10% FCS, 10 mM HEPES, 1% Pen/Strep).
Dye loading is done in HBSS/HEPES buffer (100 mL 10×HBSS+20 mL 1M HEPES+880 mL water, pH 7.4)
The LPA is added in Krebs/BSA buffer (120 mM NaCl, 5 mM KCl, 0.62 mM MgSO4, 1.8 mM CaCl2, 10 mM HEPES, 6 mM D(+)-Glucose, 0.2% BSA, pH 7.4).
The compounds are pre-diluted in HEPES buffer (20 mM, pH 7.4), whereby the final DMSO content in the assay is kept at 1%. The compounds are pre-diluted in order to generate dose response series on the microplates. The dose response series consist of 10 concentrations for each compound from 30 uM final to 1 nM final. From all compound wells the resulting signals are referred to control wells (located on each plate besides the compound wells) in terms of % activity.
From these % activity values—along with the corresponding compound concentrations—IC50 values are fitted for each compound using standard fitting programs such as Graphpad Prism. Here the method “log(inhibitor) vs. response—Variable slope” is used.

T1 sequence (Q9HBW0 whole entry): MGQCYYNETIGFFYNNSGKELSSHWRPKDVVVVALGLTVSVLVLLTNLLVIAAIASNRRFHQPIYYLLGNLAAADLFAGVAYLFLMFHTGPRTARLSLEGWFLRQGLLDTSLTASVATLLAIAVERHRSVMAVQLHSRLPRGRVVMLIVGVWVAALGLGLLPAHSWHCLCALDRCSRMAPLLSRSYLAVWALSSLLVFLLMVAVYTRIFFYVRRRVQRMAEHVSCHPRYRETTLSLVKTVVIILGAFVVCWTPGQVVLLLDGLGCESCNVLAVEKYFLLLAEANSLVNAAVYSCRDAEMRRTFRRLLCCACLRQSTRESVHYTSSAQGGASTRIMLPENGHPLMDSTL

In the case of `O=C(Nc1nc2cc(Cl)c(Cl)cc2[nH]1)C1CC1c1ccccc1` (racemic) [2-Phenyl-cyclopropane-carboxylic acid (5,6-dichloro-1H-benzoimidazol-2-yl)-amide], the half-maximal inhibitory concentration (IC50) was 100 to 1000 nM.

In the case of `O=C(Nc1nc2ccnc(Cl)c2[nH]1)C1CC1c1ccccc1` (racemic) [2-Phenyl-cyclopropane-carboxylic acid (4-chloro-3H-imidazo[4,5-c]pyridin-2-yl)-amide], the IC50 lay within 10 to 100 nM.

As for `O=C(Nc1nc2cc(Cl)cnc2[nH]1)C1CC1c1ccccc1` (single isomer, unassigned; enantiomer-2) [enantiomer-2-Phenyl-cyclopropane-carboxylic acid (6-chloro-3H-imidazo[4,5-b]pyridin-2-yl)-amide], the IC50 was < 10 nM.

As for `COc1ccc(C2CC2C(=O)Nc2nc3ccccc3[nH]2)cc1` (racemic) [2-(4-Methoxy-phenyl)-cyclopropane-carboxylic acid (1H-benzoimidazol-2-yl)-amide], the IC50 lay in the range of 1000 to 10000 nM.

Take `COC(=O)c1cccc2[nH]c(NC(=O)C3CC3c3ccccc3)nc12` (racemic) [2-[(2-Phenyl-cyclopropane-carbonyl)-amino]-1H-benzoimidazole-4-carboxylic acid methyl ester]: the IC50 lay within 100 to 1000 nM.

As for `O=C(Nc1nc2cc(OCCN3CCCC3)ccc2[nH]1)C1CC1c1ccccc1` (single isomer, unassigned; enantiomer-2) [enantiomer-2-Phenyl-cyclopropane-carboxylic acid [5-(2-pyrrolidin-1-yl-ethoxy)-1H-benzoimidazol-2-yl]-amide], the IC50 is 1000 to 10000 nM.

As to `N#Cc1ccc2nc(NC(=O)C3CC3c3cccc(F)c3)[nH]c2c1` (racemic) [2-(3-Fluoro-phenyl)-cyclopropane-carboxylic acid (6-cyano-1H-benzoimidazol-2-yl)-amide], the IC50 is < 10 nM.

Take `COc1cccc(C2CC2C(=O)Nc2nc3ccccc3[nH]2)c1` (racemic) [2-(3-Methoxy-phenyl)-cyclopropane-carboxylic acid (1H-benzoimidazol-2-yl)-amide]: the half-maximal inhibitory concentration (IC50) is > 10000 nM.

Take `O=C(OCc1ccccc1)C1CCN(CNc2cccc3[nH]c(NC(=O)C4CC4c4ccccc4)nc23)C1` (racemic) [1-({2-[(2-Phenyl-cyclopropane-carbonyl)-amino]-1H-benzoimidazol-4-ylamino)-methyl)-pyrrolidine-3-carboxylic acid benzyl ester]: the IC50 was in the range of 1000 to 10000 nM.

As for `O=C(Nc1nc2c(NCC3CCN(Cc4ccccc4)CC3)cccc2[nH]1)C1CC1c1ccccc1` (racemic) [2-Phenyl-cyclopropane-carboxylic acid {4-[(1-benzyl-piperidin-4-ylmethyl)-amino]-1H-benzoimidazol-2-yl}-amide], the half-maximal inhibitory concentration (IC50) is 1000 to 10000 nM.

For the compound `O=C(Nc1nc2ccc(C(F)(F)F)cc2[nH]1)C1C(c2ccccc2)C1(F)F` (racemic) [2,2-Difluoro-3-phenyl-cyclopropane-carboxylic acid (6-trifluoromethyl-1H-benzoimidazol-2-yl)-amide], the IC50 lay within 100 to 1000 nM.

By IC50 is commonly meant the concentration that inhibits the measured activity by half.
